# Assay results reported in US20040156869A1, “2-substituted quinazolin-4-ylamine analogues” (Neurogen Corporation, priority 2002, published 2004).
# Biological target: human capsaicin receptor (VR1) (Homo sapiens, UniProt Q8NER1)
# Assay: Capsaicin receptor binding assay ([3H]RTX competition, VR1-transfected HEK293 membranes)
# Chain of human capsaicin receptor (VR1) (Q8NER1 whole entry): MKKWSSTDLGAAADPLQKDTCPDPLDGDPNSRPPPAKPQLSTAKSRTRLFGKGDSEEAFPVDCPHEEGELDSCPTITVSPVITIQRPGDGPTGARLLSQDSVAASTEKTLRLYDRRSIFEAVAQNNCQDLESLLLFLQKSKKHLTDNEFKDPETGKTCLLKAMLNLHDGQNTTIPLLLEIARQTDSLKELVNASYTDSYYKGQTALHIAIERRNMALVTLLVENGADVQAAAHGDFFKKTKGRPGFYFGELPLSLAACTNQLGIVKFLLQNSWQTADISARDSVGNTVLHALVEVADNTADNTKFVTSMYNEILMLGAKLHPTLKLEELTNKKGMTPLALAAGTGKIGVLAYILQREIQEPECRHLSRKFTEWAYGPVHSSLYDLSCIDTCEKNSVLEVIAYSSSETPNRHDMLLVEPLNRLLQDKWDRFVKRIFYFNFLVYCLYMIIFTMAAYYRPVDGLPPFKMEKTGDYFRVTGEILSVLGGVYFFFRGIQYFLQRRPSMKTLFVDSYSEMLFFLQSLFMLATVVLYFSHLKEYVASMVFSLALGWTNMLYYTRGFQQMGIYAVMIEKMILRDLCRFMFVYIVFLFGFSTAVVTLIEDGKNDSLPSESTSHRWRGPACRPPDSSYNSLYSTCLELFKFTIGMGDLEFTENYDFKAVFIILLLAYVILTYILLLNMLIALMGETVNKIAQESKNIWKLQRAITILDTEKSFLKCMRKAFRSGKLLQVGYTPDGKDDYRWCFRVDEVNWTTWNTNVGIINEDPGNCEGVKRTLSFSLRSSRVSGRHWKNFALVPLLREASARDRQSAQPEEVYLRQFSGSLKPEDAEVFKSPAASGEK
row,SMILES,Ki [nM]
1,"Cc1cccc(-c2ccc3c(Nc4ccc(C(C)(C)C)cc4)nc(CN4C[C@@H](C)O[C@@H](C)C4)nc3c2)n1 [Compound 637, (4-tert-Butyl-phenyl)-[2-(2,6-dimethyl-morpholin-4-ylmethyl)-7-(6-methyl-pyridin-2-yl)-quinazolin-4-yl]amine (cis)]",< 1000
2,"COCc1nc(Nc2ccc(C(C)(C)C)cc2)c2ccc(-c3ncccc3Cl)cc2n1 [Compound 71, (4-tert-Butyl-phenyl)-[7-(3-chloro-pyridin-2-yl)-2-methoxymethyl-quinazolin-4-yl]-amine]",< 1000
3,"COc1ccc(-c2nc(Nc3ccc(C(F)(F)F)cc3)c3ccc(-c4ncccc4C(F)(F)F)cc3n2)cn1 [Compound 509, [2-(6-Methoxy-pyridin-3-yl)-7-(3-trifluoromethyl-pyridin-2-yl)-quinazolin-4-yl]-(4-trifluoromethyl-phenyl)-amine]",< 1000
4,"FC(F)(F)c1ccc(Nc2nc(CN3CCSCC3)nc3cc(-c4ncccc4C(F)(F)F)ccc23)cc1 [Compound 548, [2-Thiomorpholin-4-ylmethyl-7-(3-trifluoromethyl-pyridin-2-yl)-quinazolin-4-yl]-(4-trifluoromethyl-phenyl)-amine]",< 1000
5,"O=C(c1nc(Nc2ccc(C(F)(F)F)cc2)c2ccc(-c3ncccc3C(F)(F)F)cc2n1)N1CCCCC1 [Compound 759, Piperidin-1-yl-[4-(4-trifluoromethyl-phenylamino)-7-(3-trifluoromethyl-pyridin-2-yl)-quinazolin-2-yl]I-methanone]",< 1000
6,"COCc1nc(Nc2ccc(C(C)C)cc2)c2ncc(-c3ncccc3C(F)(F)F)cc2n1 [Compound 51, (4-Isopropyl-phenyl)-[2-methoxymethyl-7-(3-trifluoromethyl-pyridin-2-yl)-pyrido[3,2-d]pyrimidin-4-yl]-amine]",< 1000
7,"CCOCc1nc(Nc2ccc(S(=O)(=O)C(F)(F)F)cc2)c2ccc(-c3ncccc3C)nc2n1 [Compound 140, [2-Ethoxymethyl-7-(3-methyl-pyridin-2-yl)-pyrido[2,3-d]pyrimidin-4-yl]-(4-trifluoromethanesulfonyl-phenyl)-amine]",< 1000
8,"CC(C)COCc1nc(Nc2cccc(C(F)(F)F)c2)c2ccc(-c3ncccc3C(F)(F)F)nc2n1 [Compound 270, [2-Isobutoxymethyl-7-(3-trifluoromethyl-pyridin-2-yl)-pyrido[2,3-d]pyrimidin-4-yl]-(3-trifluoromethyl-phenyl)-amine]",< 1000
9,"COC(=O)CCc1nc(Nc2ccc(C(F)(F)F)cc2)c2ccc(-c3ncccc3C(F)(F)F)cc2n1 [Compound 17, 3-[4-(4-Trifluoromethyl-phenylamino)-7-(3-trifluoromethyl-pyridin-2-yl)-quinazolin-2-yl]-propionic acid methyl ester]",< 1000
10,"CCOCc1nc(Nc2ccc(C(F)(F)F)c(C)c2)c2ccc(-c3ncccc3Cl)nc2n1 [Compound 184, [7-(3-Chloro-pyridin-2-yl)-2-ethoxymethyl-pyrido[2,3-d]pyrimidin-4-yl]-(3-methyl-4-trifluoromethyl-phenyl)-amine]",< 1000
11,"CCOCc1nc(Nc2ccc(C(F)(F)F)nc2)c2ccc(-c3ncccc3C(F)(F)F)nc2n1 [Compound 224, [2-Ethoxymethyl-7-(3-trifluoromethyl-pyridin-2-yl)-pyrido[2,3-d]pyrimidin-4-yl]-(6-trifluoromethyl-pyridin-3-yl)-amine]",< 1000
12,"CCCCCCN(CCCCCC)CCc1nc(Nc2ccc(C(F)(F)F)cc2)c2ccc(-c3ncccc3C(F)(F)F)cc2n1 [Compound 429, [2-Dihexylaminoethyl-7-(3-trifluoromethyl-pyridin-2-yl)-quinazolin-4-yl]-(4-trifluoromethyl-phenyl)-amine]",< 1000
13,"C[C@@H]1CN(Cc2nc(Nc3ccc(C(F)(F)F)cc3)c3ccc(-c4ncccc4C(F)(F)F)cc3n2)CCO1 [Compound 683, (R)-[2-(2-Methyl-morpholin-4-ylmethyl)-7-(3-trifluoromethyl-pyridin-2-yl)-quinazolin-4-yl]-(4-trifluoromethyl-phenyl)-amine]",< 1000
14,"CN(C)Cc1nc(Nc2ccc(S(=O)(=O)N3CCOCC3)cc2)c2ccc(-c3ncccc3C(F)(F)F)cc2n1 [Compound 721, [2-Dimethylaminomethyl-7-(3-trifluoromethyl-pyridin-2-yl)-quinazolin-4-yl]-[4-(morpholine-4-sulfonyl)-phenyl]-amine]",< 1000
15,"CC(=O)N1CCN(Cc2nc(Nc3ccc(C(F)(F)F)nc3)c3ccc(-c4ncccc4C(F)(F)F)cc3n2)CC1 [Compound 489, 1 -{4-[7-(3-Trifluoromethyl-pyridin-2-yl)-4-(6-trifluoromethyl-pyridin-3-ylamino)-quinazolin-2-ylmethyl]-piperazin-1-yl}-ethanone]",< 1000
16,"CNC(=O)c1nc(Nc2ccc(C(F)(F)F)cc2)c2ccc(-c3ncccc3C(F)(F)F)cc2n1 [Compound 708, 4-(4-Trifluoromethyl-phenylamino)-7-(3-trifluoromethyl-pyridin-2-yl)-quinazoline-2-carboxylic acid methylamide]",< 1000

row,SMILES,Ki [nM]
1,"CC(C)c1ccc(Nc2nc(CN3C[C@@H](C)O[C@@H](C)C3)nc3cc(-c4ncccc4C(F)(F)F)ccc23)cc1 [Compound 688, [2-(2,6-Dimethyl-morpholin-4-ylmethyl)-7-(3-trifluoromethyl-pyridin-2-yl)-quinazolin-4-yl]-(4-isopropyl-phenyl)-amine (cis)]",< 1000
2,"CCCCCCN(C)Cc1nc(Nc2ccc(C(F)(F)F)nc2)c2ccc(-c3ncccc3C(F)(F)F)cc2n1 [Compound 376, [2-[(Hexyl-methyl-ainino)-methyl]-7-(3-trifluoromethyl-pyridin-2-yl)-quinazolin-4-yl]-(6-trifluoromethyl-pyridin-3-yl)-amine]",< 1000
3,"OCC1CCCN(Cc2nc(Nc3ccc(C(F)(F)F)nc3)c3ccc(-c4ncccc4C(F)(F)F)cc3n2)C1 (stereo not shown) [Compound 490, {1-[7-(3-Trifluoromethyl-pyridin-2-yl)-4-(6-trifluoromethyl-pyridin-3-ylamino)-quinazolin-2-ylmethyl]-piperidin-3-yl}-methanol]",< 1000
4,"CC(=O)c1ccc(Nc2nc(CN3C[C@@H](C)O[C@@H](C)C3)nc3cc(-c4ncccc4C(F)(F)F)cnc23)cc1 [Compound 698, 1-{4-[2-(2,6-Dimethyl-morpholin-4-ylmethyl)-7-(3-trifluoromethyl-pyridin-2-yl)-pyrido[3,2-d]pyrimidin-4-ylamino]-phenyl}-ethanone (cis)]",< 1000
5,"C[C@@H]1CN(Cc2nc(Nc3ccc(C(F)(F)F)cc3)c3ccc(-c4ncccc4C(F)(F)F)nc3n2)C[C@H](C)O1 [Compound 748, [2-(2,6-Dimethyl-morpholin-4-ylmethyl)-7-(3-trifluoromethyl-pyridin-2-yl)-pyrido[2,3-d]pyrimidin-4-yl]-(4-trifluoromethyl-phenyl)-amine (cis)]",< 1000
6,"Cc1cc(Nc2nc(COCC(C)C)nc3nc(-c4ncccc4Cl)ccc23)ccc1F [Compound 269, [7-(3-Chloro-pyridin-2-yl)-2-isobutoxymethyl-pyrido[2,3-d]pyrimidin-4-yl]-(4-fluoro-3-methyl-phenyl)-amine]",< 1000
7,"COCc1nc(Nc2ccc(S(=O)(=O)N3CCOCC3)cc2)c2ccc(-c3ncccc3C(F)(F)F)nc2n1 [Compound 114, [2-Methoxymethyl-7-(3-trifluoromethyl-pyridin-2-yl)-pyrido[2,3-d]pyrimidin-4-yl]-[4-(morpholine-4-sulfonyl)-phenyl]-amine]",< 1000
8,"CCOCc1nc(Nc2ccc(C(F)(F)F)cc2)c2ccc(-c3ncccc3C(F)(F)F)nc2n1 [Compound 223, [2-Ethoxymethyl-7-(3-trifluoromethyl-pyridin-2-yl)-pyrido[2,3-d]pyrimidin-4-yl]-(4-trifluoromethyl-phenyl)-amine]",< 1000
9,"CCOCN(COCC)Cc1nc(Nc2ccc(C(F)(F)F)cc2)c2ccc(-c3ncccc3C)cc2n1 [Compound 725, [2-[(Bis-ethoxymethyl-amino)-methyl]-7-(3-methyl-pyridin-2-yl)-quinazolin-4-yl]-(4-trifluoromethyl-phenyl)-amine]",< 1000
10,"Cn1ccnc1CN1CCC(c2nc(Nc3ccc(C(F)(F)F)cc3)c3ccc(-c4ncccc4C(F)(F)F)cc3n2)CC1 [Compound 692, [2-[1-(1-Methyl-1H-imidazol-2-ylmethyl)-piperidin-4-yl]-7-(3-trifluoromethyl-pyridin-2-yl)-quinazolin-4-yl]-(4-trifluoromethyl-phenyl)-amine]",< 1000
11,"CN1C2CCC1CC(NC(=O)c1nc(Nc3ccc(C(F)(F)F)cc3)c3ccc(-c4ncccc4C(F)(F)F)nc3n1)C2 (stereo not shown) [Compound 445, 4-(4-Trifluoromethyl-phenylamino)-7-(3-trifluoromethyl-pyridin-2-yl)-pyrido[2,3-d]pyrimidine-2-carboxylic acid (8-methyl-8-aza-bicyclo[3.2.1]oct-3-yl)-amide]",< 1000
12,"FC(F)(F)c1ccc(Nc2nc(COC3CCOCC3)nc3cc(-c4ncccc4Cl)ccc23)cc1 [Compound 102, [7-(3-Chloro-pyridin-2-yl)-2-(tetrahydro-pyran-4-yloxymethyl)-quinazolin-4-yl]-(4-trifluoromethyl-phenyl)-amine]",< 1000
13,"COCc1cc(Nc2ccc(S(=O)(=O)C(F)(F)F)cc2)c2ccc(-c3ncccc3C(F)(F)F)nc2n1 [Compound 308, [2-Methoxymethyl-7-(3-trifluoromethyl-pyridin-2-yl)-[1,8]naphthyridin-4-yl]-(4-trifluoromethanesulfonyl-phenyl)-amine]",< 1000
14,"Cc1cccnc1-c1ccc2c(Nc3ccc(S(C)(=O)=O)cc3)nc(COCC(C)C)nc2n1 [Compound 216, [2-Isobutoxymethyl-7-(3-methyl-pyridin-2-yl)-pyrido[2,3-d]pyrimidin-4-yl]-(4-methanesulfonyl-phenyl)-amine]",< 1000
15,"CC(C)COCc1nc(Nc2ccc(C(F)(F)F)cc2)c2ccc(-c3ncccc3Cl)nc2n1 [Compound 176, [7-(3-Chloro-pyridin-2-yl)-2-isobutoxymethyl-pyrido[2,3-d]pyrimidin-4-yl]-(4-trifluoromethyl-phenyl)-amine]",< 1000
